Experimental data published in patent US8309718B2, “4-pyrazolyl-N-arylpyrimidin-2-amines and 4-pyrazolyl-N-heteroarylpyrimidin-2-amines as janus kinase inhibitors” (Incyte Corporation, priority 2007, dated 2012).

These molecules were tested against T1, human JAK2 (Homo sapiens, UniProt O60674) (assay: In vitro JAK kinase assay (HTRF, phosphorylation of biotinylated peptide)). Settings: catalytic domain a.a. 828-1132, 30 μM ATP, 500 nM peptide, room temperature 1 hr; read-out: JAK-2 IC50.
T1 construct: JAK2 (a.a. 828-1132); His tag (N); made in house; host or cells: insect cells (baculovirus)
T1 sequence (O60674 828-1132): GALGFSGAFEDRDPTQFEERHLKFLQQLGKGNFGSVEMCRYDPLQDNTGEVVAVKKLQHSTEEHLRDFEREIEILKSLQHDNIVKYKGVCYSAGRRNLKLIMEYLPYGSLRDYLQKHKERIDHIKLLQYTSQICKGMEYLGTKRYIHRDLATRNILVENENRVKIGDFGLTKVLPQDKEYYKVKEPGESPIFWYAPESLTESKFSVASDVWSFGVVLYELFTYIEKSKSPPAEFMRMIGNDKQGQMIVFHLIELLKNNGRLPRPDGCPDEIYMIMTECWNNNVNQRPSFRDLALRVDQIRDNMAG
Assay type: biochemical
How it was run: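 IC50 from HTRF detection (Eu-Py20 antibody, SA-APC) of biotinylated-peptide phosphorylation (500 nM), run 1 h at RT. Enzyme: N-His human JAK2 kinase domain a.a. 828-1132 from insect cells; ATP 30 μM; buffer 50 mM Tris pH 7.8 with NaCl, DTT, BSA.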
With `N#CCC1(n2cc(-c3ccnc(Nc4ccc(N5CCCC5=O)cc4)n3)cn2)CC(C#N)C1` (single isomer, unassigned) [Example 340, 3-(cyanomethyl)-3-[4-(2-{[4-(2-oxopyrrolidin-1-yl)phenyl]amino}pyrimidin-4-yl)-1H-pyrazol-1-yl]cyclobutanecarbonitrile] the IC50 was < 100 nM. In the case of `N#CCC1(n2cc(-c3ccnc(Nc4ccc(-n5cccn5)cc4)n3)cn2)CC(C#N)C1` (single isomer, unassigned) [Example 341, 3-(cyanomethyl)-3-[4-(2-{[4-(1H-pyrazol-1-yl)phenyl]amino}pyrimidin-4-yl)-1H-pyrazol-1-yl]cyclobutanecarbonitrile], the IC50 is reported as < 100 nM. With `N#CCC1(n2cc(-c3ccnc(Nc4ccc(-c5cnco5)cc4)n3)cn2)CC(C#N)C1` (single isomer, unassigned) [Example 342, 3-(cyanomethyl)-3-[4-(2-{[4-(1,3-oxazol-5-yl)phenyl]amino}pyrimidin-4-yl)-1H-pyrazol-1-yl]cyclobutanecarbonitrile] the IC50 was < 100 nM. For `N#CCC1(n2cc(-c3ccnc(Nc4cccc(-c5cnco5)c4)n3)cn2)CC(C#N)C1` (single isomer, unassigned) [Example 343, 3-(cyanomethyl)-3-[4-(2-{[3-(1,3-oxazol-5-yl)phenyl]amino}pyrimidin-4-yl)-1H-pyrazol-1-yl]cyclobutanecarbonitrile], the IC50 was < 100 nM. With `N#CCC1(n2cc(-c3ccnc(Nc4ccc(S(=O)(=O)N5CCOCC5)cc4)n3)cn2)CC(C#N)C1` (single isomer, unassigned) [Example 344, 3-(cyanomethyl)-3-[4-(2-{[4-(morpholin-4-ylsulfonyl)phenyl]amino}pyrimidin-4-yl)-1H-pyrazol-1-yl]cyclobutanecarbonitrile] the IC50 was < 100 nM. For `N#CCC1(n2cc(-c3ccnc(Nc4cccc(N5CCCC5=O)c4)n3)cn2)CC(C#N)C1` (single isomer, unassigned) [Example 348, 3-(cyanomethyl)-3-[4-(2-{[3-(2-oxopyrrolidin-1-yl)phenyl]amino}pyrimidin-4-yl)-1H-pyrazol-1-yl]cyclobutanecarbonitrile], the IC50 was < 100 nM. In the case of `N#CCC1(n2cc(-c3ccnc(Nc4cccc(-c5cnco5)c4)n3)cn2)CN(S(=O)(=O)C2CC2)C1` [Example 18, 2-(1-(cyclopropylsulfonyl)-3-(4-(2-(3-(oxazol-5-yl)phenylamino)pyrimidin-4-yl)-1H-pyrazol-1-yl)azetidin-3-yl)acetonitrile], the IC50 is reported as < 100 nM. With `CC(=O)Nc1ccc(Nc2nccc(-c3cnn(C4(CC#N)CN(S(=O)(=O)C5CC5)C4)c3)n2)cc1` [Example 19, N-(4-(4-(1-(3-(cyanomethyl)-1-(cyclopropylsulfonyl)azetidin-3-yl)-1H-pyrazol-4-yl)pyrimidin-2-ylamino)phenyl)acetamide] the IC50 was < 100 nM. In the case of `Cc1nccc(-c2cccc(Nc3nccc(-c4cnn(C5(CC#N)CN(S(=O)(=O)C6CC6)C5)c4)n3)c2)n1` [Example 20, 2-(1-(cyclopropylsulfonyl)-3-(4-(2-(3-(2-methylpyrimidin-4-yl)phenylamino)pyrimidin-4-yl)-1H-pyrazol-1-yl)azetidin-3-yl)acetonitrile], the IC50 is reported as < 100 nM. For `N#CCC1(n2cc(-c3ccnc(Nc4ccc(-c5cnco5)cc4)n3)cn2)CN(S(=O)(=O)C2CC2)C1` [Example 21, 2-(1-(cyclopropylsulfonyl)-3-(4-(2-(4-(oxazol-5-yl)phenylamino)pyrimidin-4-yl)-1H-pyrazol-1-yl)azetidin-3-yl)acetonitrile], the IC50 was < 100 nM. With `N#CCC1(n2cc(-c3ccnc(Nc4ccc(-n5cccn5)cc4)n3)cn2)CCN(S(=O)(=O)C2CC2)CC1` [Example 28, 2-(4-(4-(2-(4-(1H-pyrazol-1-yl)phenylamino)pyrimidin-4-yl)-1H-pyrazol-1-yl)-1-(cyclopropylsulfonyl)piperidin-4-yl)acetonitrile] the IC50 was < 100 nM. In the case of `N#CCC1(n2cc(-c3ccnc(Nc4ccc(N5CCOCC5)cc4)n3)cn2)CCN(S(=O)(=O)C2CC2)CC1` [Example 29, 2-(1-(cyclopropylsulfonyl)-4-(4-(2-(4-morpholinophenylamino)pyrimidin-4-yl)-1H-pyrazol-1-yl)piperidin-4-yl)acetonitrile], the IC50 is reported as < 100 nM. With `N#CCC1(n2cc(-c3ccnc(Nc4ccc(C(N)=O)cc4)n3)cn2)CCN(S(=O)(=O)C2CC2)CC1` [Example 30, 4-(4-(1-(4-(cyanomethyl)-1-(cyclopropylsulfonyl)piperidin-4-yl)-1H-pyrazol-4-yl)pyrimidin-2-ylamino)benzamide] the IC50 was < 100 nM. `N#CCC1(n2cc(-c3ccnc(Nc4ccc(C(=O)NCCO)cc4)n3)cn2)CCN(S(=O)(=O)C2CC2)CC1` [Example 31, 4-(4-(1-(4-(cyanomethyl)-1-(cyclopropylsulfonyl)piperidin-4-yl)-1H-pyrazol-4-yl)pyrimidin-2-ylamino)-N-(2-hydroxyethyl)benzamide] was tested, and the IC50 was < 100 nM. For `CN(C)C(=O)c1ccc(Nc2nccc(-c3cnn(C4(CC#N)CCN(S(=O)(=O)C5CC5)CC4)c3)n2)cc1` [Example 32, 4-(4-(1-(4-(cyanomethyl)-1-(cyclopropylsulfonyl)piperidin-4-yl)-1H-pyrazol-4-yl)pyrimidin-2-ylamino)-N,N-dimethylbenzamide], the IC50 was < 100 nM. With `N#CCC1(n2cc(-c3ccnc(Nc4ccc(N5CCOCC5)cc4)n3)cn2)CN(S(=O)(=O)C2CC2)C1` [Example 93, 2-(1-(cyclopropylsulfonyl)-3-(4-(2-(4-morpholinophenylamino)pyrimidin-4-yl)-1H-pyrazol-1-yl)azetidin-3-yl)acetonitrile] the IC50 was < 100 nM. In the case of `N#CCC1(n2cc(-c3ccnc(Nc4ccc(N5CCOCC5)cc4)n3)cn2)CCN(C(=O)c2ccno2)CC1` [Example 94, 2-(1-(isoxazole-5-carbonyl)-4-(4-(2-(4-morpholinophenylamino)pyrimidin-4-yl)-1H-pyrazol-1-yl)piperidin-4-yl)acetonitrile], the IC50 is reported as < 100 nM. `CN1CCCC1CCNC(=O)c1cccc(Nc2nccc(-c3cnn(C(CC#N)C4CCCC4)c3)n2)c1` (stereo not shown) [Example 149, 3-(4-(1-(2-cyano-1-cyclopentylethyl)-1H-pyrazol-4-yl)pyrimidin-2-ylamino)-N-(2-(1-methylpyrrolidin-2-yl)ethyl)benzamide] was tested, and the IC50 was < 100 nM. `N#CCC(C1CCCC1)n1cc(-c2ccnc(Nc3cccc(C(=O)NCCN4CCNC4=O)c3)n2)cn1` (stereo not shown) [Example 159, 3-(4-(1-(2-cyano-1-cyclopentylethyl)-1H-pyrazol-4-yl)pyrimidin-2-ylamino)-N-(2-(2-oxoimidazolidin-1-yl)ethyl)benzamide] was tested, and the IC50 was < 100 nM. With `N#CCC(C1CCCC1)n1cc(-c2ccnc(Nc3cccc(NC(=O)O[C@@H]4CCOC4)c3)n2)cn1` (stereo partly drawn) [Example 200, (R)-tetrahydrofuran-3-yl 3-(4-(1-(2-cyano-1-cyclopentylethyl)-1H-pyrazol-4-yl)pyrimidin-2-ylamino)phenylcarbamate] the IC50 was < 100 nM. In the case of `N#CCC(C1CCCC1)n1cc(-c2ccnc(Nc3ccc(NC(=O)CN4CC[C@@H](O)C4)cc3)n2)cn1` (stereo partly drawn) [Example 204, N-(4-(4-(1-(2-cyano-1-cyclopentylethyl)-1H-pyrazol-4-yl)pyrimidin-2-ylamino)phenyl)-2-((R)-3-hydroxypyrrolidin-1-yl)acetamide], the IC50 is reported as < 100 nM. For `CC(=O)N[C@H]1CCN(C(=O)c2ccc(Nc3nccc(-c4cnn(C(CC#N)C5CCCC5)c4)n3)cc2)C1` (stereo partly drawn) [Example 222, N-((3S)-1-(4-(4-(1-(2-cyano-1-cyclopentylethyl)-1H-pyrazol-4-yl)pyrimidin-2-ylamino)benzoyl)pyrrolidin-3-yl)acetamide], the IC50 was < 100 nM. `CCS(=O)(=O)N1CC(CC#N)(n2cc(-c3ccnc(Nc4ccc(C(=O)N5CCOCC5)cc4)n3)cn2)C1` [Example 255, 2-(1-(ethylsulfonyl)-3-(4-(2-(4-(morpholine-4-carbonyl)phenylamino)pyrimidin-4-yl)-1H-pyrazol-1-yl)azetidin-3-yl)acetonitrile] was tested, and the IC50 was < 100 nM. `CCS(=O)(=O)N1CC(CC#N)(n2cc(-c3ccnc(Nc4ccc(C(=O)N5CCC(O)CC5)cc4)n3)cn2)C1` [Example 256, 2-(1-(ethylsulfonyl)-3-(4-(2-(4-(4-hydroxypiperidine-1-carbonyl)phenylamino)pyrimidin-4-yl)-1H-pyrazol-1-yl)azetidin-3-yl)acetonitrile] was tested, and the IC50 was < 100 nM. With `CCS(=O)(=O)N1CC(CC#N)(n2cc(-c3ccnc(Nc4ccc(C(=O)N5[C@@H]6CC[C@H]5C[C@@H](O)C6)cc4)n3)cn2)C1` [Example 257, 2-(1-(ethylsulfonyl)-3-(4-(2-(4-((3-endo)-3-hydroxy-8-azabicyclo[3.2.1]octane-8-carbonyl)phenylamino)pyrimidin-4-yl)-1H-pyrazol-1-yl)azetidin-3-yl)acetonitrile] the IC50 was < 100 nM. For `CCS(=O)(=O)N1CC(CC#N)(n2cc(-c3ccnc(Nc4ccc(C(=O)N5CCCC5)cc4)n3)cn2)C1` [Example 258, 2-(1-(ethylsulfonyl)-3-(4-(2-(4-(pyrrolidine-1-carbonyl)phenylamino)pyrimidin-4-yl)-1H-pyrazol-1-yl)azetidin-3-yl)acetonitrile], the IC50 was < 100 nM. In the case of `CCS(=O)(=O)N1CC(CC#N)(n2cc(-c3ccnc(Nc4ccc(C(=O)NC5CCOCC5)cc4)n3)cn2)C1` [Example 259, 4-(4-(1-(3-(cyanomethyl)-1-(ethylsulfonyl)azetidin-3-yl)-1H-pyrazol-4-yl)pyrimidin-2-ylamino)-N-(tetrahydro-2H-pyran-4-yl)benzamide], the IC50 is reported as < 100 nM. For `CCS(=O)(=O)N1CC(CC#N)(n2cc(-c3ccnc(Nc4ccc(C(=O)N5CCC5)cc4)n3)cn2)C1` [Example 273, 2-(3-(4-(2-(4-(azetidine-1-carbonyl)phenylamino)pyrimidin-4-yl)-1H-pyrazol-1-yl)-1-(ethylsulfonyl)azetidin-3-yl)acetonitrile], the IC50 was < 100 nM.
